Results reported in patent US20240101563A1, “NOVEL COMPOUNDS” (AC Immune SA, priority 2022, published 2024).
Counter-ions that a name gives are not always drawn. Like-named read-outs stand apart in the source and are kept apart here.

System: NLRP3 inflammasome pathway
Assay: NLRP3 inflammasome pathway activation assay, MSU stimulation, IL-1β HTRF
Format: cell-based
Conditions: MSU 200 μg/mL for 3 h, IL-1β release, read-out: IC50 Human monocyte-like cells MSU
Procedure: The following assays were used to determine the inhibitory activity of test compounds on the NLRP3 inflammasome pathway using common stimuli Nigericin (Invivogen) or monosodium urate crystals (MSU) (Invivogen).
Human monocyte-like cells were cultured in RPMI-1640 Glutamax medium supplemented with 10% heat inactivated FBS (Fetal Bovine Serum) and 50 U/mL penicillin-streptomycin (Life Technologies).
Human monocyte-like cells were seeded at 25000 per well in a 384-well plate and were differentiated overnight into macrophages with 10 ng/mL PMA (Phorbol Myristate Acetate). The following day, medium containing 10 ng/mL LPS (Lipopolysaccharide) was added. After 3 hours of LPS priming, concentrations of test compound in the range from […] were added 30 min prior to NLRP3 inflammasome pathway stimulation with Nigericin 3.75 μM or MSU 200 μg/mL for 3 h.
For IL-1p quantification, supernatants were analyzed using HTRF kit according to the manufacturer's instructions (Cisbio 62HIL1BPEH). Briefly, in a 384-well ProxiPlate™ microplate, 8 μl of sample was mixed, with 5 μl of Anti-IL1β Cryptate antibody (40×) and Anti-IL1β XL antibody (40×). Then, incubated overnight at RT. Reading was done using an EnVision Reader (PerkinElmer).
IC50 (concentration corresponding to 50% inhibition) were determined using GraphPad Prism 9.

[1] = Homo sapiens, 3 h, Table 7, PMA-differentiated, LPS-primed cells
[2] = Table 7, PMA-differentiated, LPS-primed cells

| IC50 [1] | SMILES | also measured |
| --- | --- | --- |
| < 100 nM | Cc1cc(C(F)(F)F)cc(O)c1-c1nc2nc(N3CCC(O)CC3)cnc2n1C [Example 63, 1-(2-(2-hydroxy-6-methyl-4-(trifluoromethyl)phenyl)-1-methyl-1H-imidazo[4,5-b]pyrazin-5-yl)piperidin-4-ol] |  |
| 100 to 1000 nM | COc1ccc2cn(-c3ccc(C(F)(F)F)cc3O)nc2n1 [Example 42] |  |
| 100 to 1000 nM | CC(C)n1c(-c2ccc(C(F)(F)F)cc2O)nc2nc(NCCO)ccc21 [Example 17, 2-(5-((2-hydroxyethyl)amino)-1-isopropyl-1H-imidazo[4,5-b]pyridin-2-yl)-5-(trifluoromethyl)phenol] |  |
| 100 to 1000 nM | CCn1c(-c2ccc(C(F)(F)F)cc2O)nc2nc(NCCO)ccc21 [Example 16, 2-(1-ethyl-5-((2-hydroxyethyl)amino)-1H-imidazo[4,5-b]pyridin-2-yl)-5-(trifluoromethyl)phenol] |  |
| < 100 nM | Cc1cc(C(F)(F)F)cc(O)c1-c1nc2nc(N3CCOCC3)ccc2n1C [Example 79, 3-methyl-2-(1-methyl-5-morpholino-imidazo[4,5-b]pyridin-2-yl)-5-(trifluoromethyl)phenol] |  |
| 100 to 1000 nM | Cc1cc(Cl)cc(O)c1-c1nc2nc(N3CCOCC3)cnc2[nH]1 [Example 73, 5-chloro-3-methyl-2-(5-morpholino-1H-imidazo[4,5-b]pyrazin-2-yl)phenol] |  |
| < 100 nM | COc1nc2nc(-c3c(C)cc(C(F)(F)F)cc3O)n(C)c2cc1CO [Example 52, 2-(6-(hydroxymethyl)-5-methoxy-1-methyl-1H-imidazo[4,5-b]pyridin-2-yl)-3-methyl-5-(trifluoromethyl)phenol] |  |
| 100 to 1000 nM | CCn1c(-c2c(C)cc(Cl)cc2O)nc2nc(OC)ccc21 [Example 30, 5-chloro-2-(1-ethyl-5-methoxy-1H-imidazo[4,5-b]pyridin-2-yl)-3-methylphenol] |  |
| < 100 nM | Cc1cc(Cl)cc(O)c1-c1nc2nc(N3CCC(O)C3)cnc2n1C (single isomer, unassigned) [Example 85A] |  |
| 100 to 1000 nM | Cc1cc(Cl)cc(O)c1-c1nc2nc(N3CCOCC3)c(F)cc2n1C [Example 64, 5-chloro-2-(6-fluoro-1-methyl-5-morpholino-1H-imidazo[4,5-b]pyridin-2-yl)-3-methylphenol] |  |
| < 100 nM | Cc1cc(C(F)(F)F)cc(O)c1-c1nc2nc(N(C)[C@@H]3CCN(C)C3)cnc2n1C [Example 60, (R)-3-methyl-2-(1-methyl-5-(methyl(1-methylpyrrolidin-3-Yl)amino)-1H-imidazo[4,5-b]pyrazin-2-yl)-5-(trifluoromethyl)phenol formate Salt] |  |
| < 100 nM | Cc1cc(Cl)cc(O)c1-c1nc2nc(O[C@@H]3CCN(C)C3)cnc2n1C [Example 58, (R)-5-chloro-3-methyl-2-(1-methyl-5-((1-methylpyrrolidin-3-yl)oxy)-1H-imidazo[4,5-b]pyrazin-2-yl)phenol formate Salt] |  |
| < 100 nM | CN1CCC[C@@H](Nc2ccc3cn(-c4ccc(Cl)cc4O)nc3n2)C1 [Example 43, (R)-5-chloro-2-(6-((1-methylpiperidin-3-yl)amino)-2H-pyrazolo[3,4-b]pyridin-2-yl)phenol] |  |
| 100 to 1000 nM | Cc1cc(Cl)cc(O)c1-c1nc2nc(OCC(F)(F)F)ccc2n1C [Example 38, 5-chloro-3-methyl-2-(1-methyl-5-(2,2,2-trifluoroethoxy)-1H-imidazo[45-b]pyridin-2-yl)phenol] |  |
| < 100 nM | Cc1cc(Cl)cc(O)c1-c1nc2nc(N3CCC(O)CC3)cnc2n1C [Example 78, 1-[2-(4-chloro-2-hydroxy-6-methyl-phenyl)-1-methyl-imidazo[4,5-b]pyrazine-5-yl]piperidin-4-ol] |  |
| < 100 nM | CN1CC[C@@H](Oc2cnc3c(n2)nc(-c2c(O)cc(Cl)cc2F)n3C)C1 [Example 87, 5-chloro-3-fluoro-2-[1-methyl-5-[(3R)-1-methylpyrrolidin-3-yl]oxy-imidazo[4,5-b]pyrazin-2-yl]phenol] |  |

| IC50 [1] | SMILES | also measured |
| --- | --- | --- |
| < 100 nM | Cc1cc(F)cc(O)c1-c1nc2nc(N(C)[C@@H]3CCN(C)C3)cnc2n1C [Example 74, (R)-5-fluoro-3-methyl-2-(1-methyl-5-(methyl(1-methylpyrrolidin-3-yl)amino)-1H-imidazo[4,5-b]pyrazin-2-yl)phenol] |  |
| 100 to 1000 nM | COc1ccc2c(n1)nc(-c1c(C)cc(C(F)(F)F)cc1O)n2C(C)C [Example 34, 2-(1-isopropyl-5-methoxy-1H-imidazo[4,5-b]pyridin-2-yl)-3-methyl-5-(trifluoromethyl)phenol] |  |
| 100 to 1000 nM | Cc1cc(Cl)cc(O)c1-c1nc2nc(NC3CCC(F)(F)C3)ccc2n1C (racemic) [Example 11, 5-chloro-2-(5-((3,3-difluorocyclopentyl)amino)-1-methyl-1H-imidazo[4,5-b]pyridin-2-yl)-3-methylphenol] |  |
| < 100 nM | Cc1cc(Cl)cc(O)c1-c1nc2nc(N(C)[C@@H]3CCN(C)C3)cnc2n1C [Example 81, 5-chloro-3-methyl-2-[1-methyl-5-[methyl-[(3R)-1-methylpyrrolidin-3-yl]amino]imidazo-[4,5-b]pyrazin-2-yl]phenol] |  |
| 100 to 1000 nM | Cc1cc(C(F)(F)F)cc(O)c1-c1nc2nc(N3CC(N(C)C)C3)cnc2n1C [Example 71, 2-(5-(3-(dimethylamino)azetidin-1-yl)-1-methyl-1H-imidazo[4,5-b]pyrazin-2-yl)-3-methyl-5-(trifluoromethyl)phenol] |  |
|  | Cc1cc(C(F)(F)F)cc(O)c1-c1nc2nc(NC3CCN(C)C3)ccc2n1C (single isomer, unassigned) [Example 18B, 3-methyl-2-(1-methyl-5-((1-methylpyrrolidin-3-yl)amino)-1H-imidazo[4,5-b]pyridin-2-yl)-5-(trifluoromethyl)phenol] | IC50 [2]: 100 to 1000 nM |
| < 100 nM | Cc1cc(Cl)cc(O)c1-c1nc2nc(N3CCOCC3)cnc2n1C [Example 66, 5-chloro-3-methyl-2-(1-methyl-5-morpholino-imidazo[4,5-b]pyrazin-2-yl)phenol] |  |
|  | Cc1cc(Cl)cc(O)c1-c1nc2nc(N3CCC(O)C3)cnc2n1C (single isomer, unassigned) [Example 85B] | IC50 [2]: < 100 nM |
|  | Cc1cc(C(F)(F)F)cc(O)c1-c1nc2nc(NC3CCCC3O)ccc2n1C (stereo not drawn) [Example 36] | IC50 [2]: 100 to 1000 nM |
| < 100 nM | COc1cnc2c(n1)nc(-c1c(C)cc(C(F)(F)F)cc1O)n2C [Example 56, 2-(5-methoxy-1-methyl-1H-imidazo[4,5-b]pyrazin-2-yl)-3-methyl-5-(trifluoromethyl)phenol] |  |
| < 100 nM | COc1nc2c(nc1N[C@@H]1CCN(C)C1)nc(-c1c(C)cc(C(F)(F)F)cc1O)n2C [Example 72, (R)-2-(6-methoxy-1-methyl-5-((1-methylpyrrolidin-3-yl)amino)-1H-imidazo[4,5-b]pyrazin-2-yl)-3-methyl-5-(trifluoromethyl)phenol] |  |
| < 100 nM | Cc1cc(C(F)(F)F)cc(O)c1-c1nc2nc(NC3CCN(C)C3)ccc2n1C(C)C (stereo not drawn) [Example 10, 2-(1-isopropyl-5-((1-methylpyrrolidin-3-yl)amino)-1H-imidazo[4,5-b]pyridin-2-yl)-3-methyl-5-(trifluoromethyl)phenol] |  |
| 100 to 1000 nM | Oc1cc(C(F)(F)F)ccc1-n1cc2ccc(OC(F)(F)F)nc2n1 [Example 45, 2-[6-(trifluoromethoxy)pyrazolo[3,4-b]pyridin-2-yl]-5-(trifluoromethyl)phenol] |  |
| 100 to 1000 nM | CNc1ccc2c(n1)nc(-c1c(C)cc(C(F)(F)F)cc1O)n2C(C)C [Example 15, 2-(1-isopropyl-5-(methylamino)-1H-imidazo[4,5-b]pyridin-2-yl)-3-methyl-5-(trifluoromethyl)phenol] |  |
| < 100 nM | Cc1cc(Cl)cc(O)c1-c1nc2nc(N3CC[C@@H]4CCN(C)C[C@@H]43)cnc2n1C (relative stereo) [Example 77A, 5-chloro-3-methyl-2-[1-methyl-5-[rel-(3aS,7aR)-6-methyl-3,3a,4,5,7,7a-hexahydro-2H-pyrrolo[2,3-c]pyridin-1-yl]imidazo[4,5-b]pyrazin-2-yl]phenol] |  |
|  | Cc1cc(Cl)cc(O)c1-c1nc2nc(N3CC[C@@H]4CCN(C)C[C@@H]43)cnc2n1C (relative stereo) [Example 77B, 5-chloro-3-methyl-2-[1-methyl-5-[rel-(3aS,7aR)-6-methyl-3,3a,4,5,7,7a-hexahydro-2H-pyrrolo[2,3-c]pyridin-1-yl]imidazo[4,5-b]pyrazin-2-yl]phenol] | IC50 [2]: < 100 nM |

| SMILES | IC50 [1] | also measured |
| --- | --- | --- |
| CCn1c(-c2c(C)cc(C(F)(F)F)cc2O)nc2nc(NC3CCN(C)C3)ccc21 (single isomer, unassigned) [Example 8, 2-(1-ethyl-5-((1-methylpyrrolidin-3-yl)amino)-1H-imidazo[4,5-b]pyridin-2-yl)-3-methyl-5-(trifluoromethyl)phenol] | < 100 nM |  |
| CN1CCC[C@@H](Nc2ccc3c(n2)nc(-c2ccc(C(F)(F)F)cc2O)n3C)C1 [Example 2] | 100 to 1000 nM | IC50 (Homo sapiens, 3 h, Table 8 (formula II′/II vs formula III)): 100 to 500 nM |
| Cn1c(-c2ccc(C(F)(F)F)cc2O)nc2nc(NC3COC3)ccc21 [Example 7, 2-(1-methyl-5-(oxetan-3-ylamino)-1H-imidazo[4,5-b]pyridin-2-yl)-5-(trifluoromethyl)phenol] | 100 to 1000 nM |  |
